Laboratory results as given in ChEMBL document CHEMBL5050844 (2019).
pIC50: −log10 of the molar value. One block for each compound: values may come before it.

Columns and labels:
[1] = Induction of anti-CD3/CD28 antibodies-stimulated human T cell activation at 0.3 uM assessed fold increase in IL-2 secretion measured by ELISA assay; format: functional, T cell line
[2] = Induction of anti-CD3/CD28 antibodies-stimulated human T cell activation at 1 uM assessed fold increase in IL-2 secretion measured by ELISA assay; format: functional, T cell line
[3] = Induction of anti-CD3 antibodies-stimulated human T cell activation at 1 uM assessed fold increase in IL-2 secretion measured by ELISA assay; format: functional, T cell line; also: reference of the scale not given here
[4] = Induction of anti-CD3/CD28 antibodies-stimulated human T cell activation at 1 uM assessed fold increase in CD25 expression measured by ELISA assay; format: functional, T cell line
[5] = Induction of anti-CD3 antibodies-stimulated human T cell activation at 1 uM assessed fold increase in CD25 expression measured by ELISA assay; format: functional, T cell line; also: reference of the scale not given here
[6] = biological target: E3 ubiquitin-protein ligase CBL-B (Homo sapiens, UniProt Q13191); experiment: Inhibition of N-terminal Avi-tagged human CBL-B (36 to 427 residues) incubated with 60 nM Src kinase for 1.5 hrs followed by incubation with fluorescently labeled UbcH5B-Ub for 1 hr and measured by TR-FRET assay; format: single protein
[7] = Induction of anti-CD3/CD28 antibodies-stimulated human T cell activation at 0.3 uM assessed fold increase in CD25 expression measured by ELISA assay; format: functional, T cell line

Chain of E3 ubiquitin-protein ligase CBL-B (Q13191 whole entry, the tested form may be a part): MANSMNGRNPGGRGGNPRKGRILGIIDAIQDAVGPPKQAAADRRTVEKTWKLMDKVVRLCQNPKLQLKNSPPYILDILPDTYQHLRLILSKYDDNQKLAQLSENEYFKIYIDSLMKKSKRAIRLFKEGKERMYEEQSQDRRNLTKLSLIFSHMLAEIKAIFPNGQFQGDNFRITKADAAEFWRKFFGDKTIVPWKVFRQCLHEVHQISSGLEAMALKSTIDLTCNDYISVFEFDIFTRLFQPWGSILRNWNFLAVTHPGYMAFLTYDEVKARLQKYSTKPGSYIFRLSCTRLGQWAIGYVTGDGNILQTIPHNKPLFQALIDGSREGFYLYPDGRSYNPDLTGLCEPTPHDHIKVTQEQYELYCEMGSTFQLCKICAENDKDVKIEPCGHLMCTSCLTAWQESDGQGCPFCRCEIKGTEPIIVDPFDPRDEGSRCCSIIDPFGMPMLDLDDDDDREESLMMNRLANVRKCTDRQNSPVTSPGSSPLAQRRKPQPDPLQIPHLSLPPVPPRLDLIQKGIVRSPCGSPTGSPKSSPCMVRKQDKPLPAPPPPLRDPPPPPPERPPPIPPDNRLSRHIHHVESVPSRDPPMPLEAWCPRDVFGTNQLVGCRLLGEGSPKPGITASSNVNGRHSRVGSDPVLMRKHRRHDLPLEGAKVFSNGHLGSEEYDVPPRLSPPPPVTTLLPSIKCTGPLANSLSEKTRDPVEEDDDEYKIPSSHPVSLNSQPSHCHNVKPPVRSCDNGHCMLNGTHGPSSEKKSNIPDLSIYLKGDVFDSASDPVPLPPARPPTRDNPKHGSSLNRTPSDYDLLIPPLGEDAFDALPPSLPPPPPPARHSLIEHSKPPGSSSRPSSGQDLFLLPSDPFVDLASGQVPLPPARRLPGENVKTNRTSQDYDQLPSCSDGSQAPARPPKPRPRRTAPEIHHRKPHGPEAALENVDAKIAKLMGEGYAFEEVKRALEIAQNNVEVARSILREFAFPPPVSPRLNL

Structure (SMILES): Cn1cnnc1CC1(c2cccc(NC(=O)c3cc(CN4CC[C@H](F)C4)nc(C(F)(F)F)n3)c2)COC1
fold change (FC) [1]: 1.01
fold change (FC) [2]: 2.51
fold change (FC) [3]: 0.051
fold change (FC) [4]: 1.01
fold change (FC) [5]: 0.801
pIC50 [6]: > 7.00
fold change (FC) [7]: 1.01

Structure (SMILES): Cn1cnnc1[C@@H](F)C1(c2cccc(N3Cc4c(cc(CN5CCCCC5)cc4C(F)(F)F)C3=O)c2)COC1
fold change (FC) [1]: >=7.5
fold change (FC) [2]: >=7.5
fold change (FC) [3]: 0.101
fold change (FC) [4]: 1.51
fold change (FC) [5]: >=1.001
pIC50 [6]: > 7.00
fold change (FC) [7]: 1.31

Structure (SMILES): Cn1cnnc1CC1(c2cccc(NC(=O)c3cc(CN4C[C@H]5C[C@H]5C4)cc(C4CC4)n3)c2)COC1
fold change (FC) [1]: >=7.5
fold change (FC) [2]: >=7.5
fold change (FC) [3]: >=0.201
fold change (FC) [4]: 1.31
fold change (FC) [5]: >=1.001
pIC50 [6]: > 7.00
fold change (FC) [7]: 1.31

Structure (SMILES): Cc1cc(C(=O)Nc2cccc(C3(Cc4nocc4C)COC3)c2)nc(C2CC2)n1
fold change (FC) [1]: >=7.5
fold change (FC) [2]: >=7.5
fold change (FC) [3]: >=0.201
fold change (FC) [4]: 1.31
fold change (FC) [5]: >=1.001
pIC50 [6]: > 7.00
fold change (FC) [7]: 1.31

Structure (SMILES): Cc1cc(C(=O)Nc2cc(C3CC3)cc(C3(Cc4nncn4C)COC3)c2)nc(C2CC2)n1
fold change (FC) [1]: 2.51
fold change (FC) [2]: >=7.5
fold change (FC) [3]: >=0.201
fold change (FC) [4]: 1.31
fold change (FC) [5]: >=1.001
pIC50 [6]: > 7.00
fold change (FC) [7]: 1.01

Structure (SMILES): Cn1cnnc1CC1(c2cccc(NC(=O)c3cc(CN4CCC5CC54)cc(C4CC4)n3)c2)COC1 (stereo not drawn)
fold change (FC) [1]: >=7.5
fold change (FC) [2]: >=7.5
fold change (FC) [3]: >=0.201
fold change (FC) [4]: 1.31
fold change (FC) [5]: >=1.001
pIC50 [6]: > 7.00
fold change (FC) [7]: 1.31

Structure (SMILES): CCOc1cc(N2Cc3c(cc(CN4CC[C@H](F)C4)cc3C(F)(F)F)C2=O)cc(C2(Cc3nncn3C)COC2)c1
fold change (FC) [1]: 5
fold change (FC) [2]: >=7.5
fold change (FC) [3]: >=0.201
fold change (FC) [4]: 1.31
fold change (FC) [5]: >=1.001
pIC50 [6]: > 7.00
fold change (FC) [7]: 1.31

Structure (SMILES): CN1CC2CC(C1)N2c1cc2c(c(C(F)(F)F)c1)CN(c1cccc([C@@](C)(F)C(F)(F)c3nncn3C)c1)C2=O
fold change (FC) [1]: 1.01
fold change (FC) [2]: 2.51
fold change (FC) [3]: 0.051
fold change (FC) [4]: 1.01
fold change (FC) [5]: 0.801
pIC50 [6]: > 7.00
fold change (FC) [7]: 1.01

Structure (SMILES): CCOc1cc(NC(=O)c2cc(C)nc(C3CC3)n2)cc(C2(Cc3nncn3C)COC2)c1
fold change (FC) [1]: 2.51
fold change (FC) [2]: 5
fold change (FC) [3]: 0.051
fold change (FC) [4]: 1.01
fold change (FC) [5]: 0.801
pIC50 [6]: > 7.00
fold change (FC) [7]: 1.01

Structure (SMILES): Cc1cc(C(=O)Nc2cccc(C3([C@@H](F)c4nncn4C)COC3)c2)nc(C2CC2)n1
fold change (FC) [1]: 2.51
fold change (FC) [2]: >=7.5
fold change (FC) [3]: >=0.201
fold change (FC) [4]: 1.31
fold change (FC) [5]: >=1.001
pIC50 [6]: > 7.00
fold change (FC) [7]: 1.01

Structure (SMILES): CC(c1cc(C(=O)Nc2cccc(C3(Cc4nncn4C)COC3)c2)nc(C2CC2)n1)N1CCCC1 (stereo not drawn)
fold change (FC) [1]: >=7.5
fold change (FC) [2]: >=7.5
fold change (FC) [3]: >=0.201
fold change (FC) [4]: 1.31
fold change (FC) [5]: >=1.001
pIC50 [6]: > 7.00
fold change (FC) [7]: 1.31

Structure (SMILES): CN1CC2CCC1CN2c1cc2c(c(C(F)(F)F)c1)CN(c1cccc([C@@](C)(F)C(F)(F)c3nncn3C)c1)C2=O (stereo partly drawn)
fold change (FC) [1]: 1.01
fold change (FC) [2]: 2.51
fold change (FC) [3]: 0.101
fold change (FC) [4]: 1.31
fold change (FC) [5]: >=1.001
pIC50 [6]: > 7.00
fold change (FC) [7]: 1.31

Structure (SMILES): Cn1cnnc1CC1(c2cccc(N3Cc4c(cc(C5CC5)nc4C4CC4)C3=O)c2)COC1
fold change (FC) [1]: 1.01
fold change (FC) [2]: 1.01
fold change (FC) [3]: 0.101
fold change (FC) [4]: 1.01
fold change (FC) [5]: 0.801
pIC50 [6]: > 7.00
fold change (FC) [7]: 1.01

Second part, led by results:

pIC50 [6]: > 7.00
Structure (SMILES): Cn1cnnc1CC1(c2cccc(N3Cc4c(cc(CN5CCC(F)(F)CC5)cc4C(F)(F)F)C3=O)c2)COC1
fold change (FC) [1]: >=7.5
fold change (FC) [2]: >=7.5
fold change (FC) [3]: >=0.201
fold change (FC) [4]: 1.31
fold change (FC) [5]: >=1.001
fold change (FC) [7]: 1.31

pIC50 [6]: > 7.00
Structure (SMILES): C[C@@H](c1cc2c(c(C(F)(F)F)c1)CN(c1cccc(C3(Cc4nncn4C)COC3)c1)C2=O)N1CC(F)C1
fold change (FC) [1]: 5
fold change (FC) [2]: >=7.5
fold change (FC) [3]: 0.151
fold change (FC) [4]: 1.51
fold change (FC) [5]: >=1.001
fold change (FC) [7]: 1.31

pIC50 [6]: > 7.00
Structure (SMILES): Cn1cnnc1CC1(c2cccc(N3Cc4c(cc(N5CCOC5=O)cc4C(F)(F)F)C3=O)c2)COC1
fold change (FC) [1]: 1.01
fold change (FC) [2]: 2.51
fold change (FC) [3]: <=0.05
fold change (FC) [4]: 1.01
fold change (FC) [5]: 0.601
fold change (FC) [7]: 1.01

pIC50 [6]: > 7.00
Structure (SMILES): Cn1cnnc1CC1(c2cccc(N3Cc4c(cc(N5CC6(C5)CC(F)(F)C6)cc4C(F)(F)F)C3=O)c2)COC1
fold change (FC) [1]: 5
fold change (FC) [2]: >=7.5
fold change (FC) [3]: 0.101
fold change (FC) [4]: 1.31
fold change (FC) [5]: >=1.001
fold change (FC) [7]: 1.01

pIC50 [6]: > 7.00
Structure (SMILES): Cn1cnnc1CC1(c2cccc(N3Cc4c(cc(C5CCC5)cc4C(F)(F)F)C3=O)c2)COC1
fold change (FC) [1]: 2.51
fold change (FC) [2]: 2.51
fold change (FC) [3]: 0.101
fold change (FC) [4]: 1.31
fold change (FC) [5]: 0.801
fold change (FC) [7]: 1.01

pIC50 [6]: > 7.00
Structure (SMILES): Cn1cnnc1CC1(c2cccc(N3Cc4c(cc(CN5Cc6ccccc6C5)cc4C(F)(F)F)C3=O)c2)COC1
fold change (FC) [1]: 5
fold change (FC) [2]: >=7.5
fold change (FC) [3]: >=0.201
fold change (FC) [4]: 1.31
fold change (FC) [5]: >=1.001
fold change (FC) [7]: 1.31

pIC50 [6]: > 7.00
Structure (SMILES): Cn1cnnc1CC1(c2cccc(N3Cc4c(cc(C5CCOC5)cc4C(F)(F)F)C3=O)c2)COC1 (stereo not drawn)
fold change (FC) [1]: 2.51
fold change (FC) [2]: 5
fold change (FC) [3]: 0.101
fold change (FC) [4]: 1.01
fold change (FC) [5]: 0.801
fold change (FC) [7]: 1.01

pIC50 [6]: > 7.00
Structure (SMILES): CC[C@@H](c1cc2c(c(C(F)(F)F)c1)CN(c1cccc(C3(Cc4nncn4C)COC3)c1)C2=O)N1CC[C@H](F)C1
fold change (FC) [1]: >=7.5
fold change (FC) [2]: >=7.5
fold change (FC) [3]: >=0.201
fold change (FC) [4]: 1.51
fold change (FC) [5]: >=1.001
fold change (FC) [7]: 1.51

pIC50 [6]: > 7.00
Structure (SMILES): Cn1cnnc1CC1(c2cccc(N3Cc4c(cc(CC5CCCO5)cc4C(F)(F)F)C3=O)c2)COC1 (stereo not drawn)
fold change (FC) [1]: 2.51
fold change (FC) [2]: >=7.5
fold change (FC) [3]: 0.101
fold change (FC) [4]: 1.01
fold change (FC) [5]: 0.801
fold change (FC) [7]: 1.01

pIC50 [6]: > 7.00
Structure (SMILES): CC1CN(c2cc3c(c(C(F)(F)F)c2)CN(c2cccc(C4(Cc5nncn5C)COC4)c2)C3=O)C1C (stereo not drawn)
fold change (FC) [1]: 1.01
fold change (FC) [2]: 2.51
fold change (FC) [3]: 0.051
fold change (FC) [4]: 1.01
fold change (FC) [5]: 0.601
fold change (FC) [7]: 1.01

pIC50 [6]: > 7.00
Structure (SMILES): Cn1cnnc1C[C@@]1(c2cccc(N3Cc4c(cc(CN5CCC6(CC6)C5)cc4C(F)(F)F)C3=O)c2)CCOC1
fold change (FC) [1]: 2.51
fold change (FC) [2]: >=7.5
fold change (FC) [3]: 0.101
fold change (FC) [4]: 1.01
fold change (FC) [5]: 0.801
fold change (FC) [7]: 1.01

pIC50 [6]: > 7.00
Structure (SMILES): CCOC1CCCN(Cc2cc3c(c(C(F)(F)F)c2)CN(c2cccc(C4(Cc5nncn5C)COC4)c2)C3=O)C1 (stereo not drawn)
fold change (FC) [1]: >=7.5
fold change (FC) [2]: >=7.5
fold change (FC) [3]: >=0.201
fold change (FC) [4]: 1.51
fold change (FC) [5]: >=1.001
fold change (FC) [7]: 1.51

pIC50 [6]: > 7.00
Structure (SMILES): C[C@H](c1cc2c(c(C(F)(F)F)c1)CN(c1cccc(C3(Cc4nncn4C)COC3)c1)C2=O)N1CCC2(CC1)CC2
fold change (FC) [1]: >=7.5
fold change (FC) [2]: >=7.5
fold change (FC) [3]: >=0.201
fold change (FC) [4]: 1.01
fold change (FC) [5]: >=1.001
fold change (FC) [7]: 1.01

pIC50 [6]: > 7.00
Structure (SMILES): CC[C@H](c1cc2c(c(C(F)(F)F)c1)CN(c1cccc(C3(Cc4nncn4C)COC3)c1)C2=O)N1CC[C@H](F)C1
fold change (FC) [1]: >=7.5
fold change (FC) [2]: >=7.5
fold change (FC) [3]: >=0.201
fold change (FC) [4]: 1.51
fold change (FC) [5]: >=1.001
fold change (FC) [7]: 1.51

pIC50 [6]: > 7.00
Structure (SMILES): CN1CC2CCC1CN2c1cc2c(c(C(F)(F)F)c1)CN(c1cccc(C3(Cc4nncn4C)COC3)c1)C2=O (stereo not drawn)
fold change (FC) [1]: 2.51
fold change (FC) [2]: 5
fold change (FC) [3]: >=0.201
fold change (FC) [4]: 1.31
fold change (FC) [5]: 0.801
fold change (FC) [7]: 1.01

pIC50 [6]: > 7.00
Structure (SMILES): Cn1cnnc1CC1(c2cccc(N3Cc4c(cc(CN5CCOC6(CCC6)C5)cc4C(F)(F)F)C3=O)c2)COC1
fold change (FC) [1]: >=7.5
fold change (FC) [2]: >=7.5
fold change (FC) [3]: >=0.201
fold change (FC) [4]: 1.01
fold change (FC) [5]: >=1.001
fold change (FC) [7]: 1.01
